Test results taken from US20250051419A1, “POLYPEPTIDE MODULATORS” (Georgiamune Inc., priority 2021, published 2025).

Legend:
[1] = tested on: human CD4 T cells; test: Flow cytometry of Tcm and Tte after PD-L2-IgG treatment of stimulated T cells; format: cell-based; settings: 25 μg/mL, 48 hours after treatment, vs untreated, p<0.05
Protocol: After 72 hours, the cells were treated with PD-L2-IgG at concentration of 25 μg/mL. Control wells were left untreated. Forty-eight hours after treatment, the cells were collected, washed and stained with the fluorophore labeled antibodies, and analyzed by flow cytometry. Tom were defined as CD45RO^high/CD62L^high/CD45RA^low. Exhausted T cells or terminal effector T cells (“Tte”) were defined as CD45RO^low/CD62L^low/CD45RA^high.

[2] = molecular target: T1, PD-1 (Mus musculus, UniProt Q02242); test: Immunoprecipitation of PD-1 and Western blot of PD-1 bound ITK and SHP2; format: cell-based; settings: pre-activated primary mouse CD4 T cells, PD-1 immune-precipitated 5 minutes after treatment, Western blot, compared to control Ab
T1 construct: endogenous in cells
T1 sequence (Q02242 25-288): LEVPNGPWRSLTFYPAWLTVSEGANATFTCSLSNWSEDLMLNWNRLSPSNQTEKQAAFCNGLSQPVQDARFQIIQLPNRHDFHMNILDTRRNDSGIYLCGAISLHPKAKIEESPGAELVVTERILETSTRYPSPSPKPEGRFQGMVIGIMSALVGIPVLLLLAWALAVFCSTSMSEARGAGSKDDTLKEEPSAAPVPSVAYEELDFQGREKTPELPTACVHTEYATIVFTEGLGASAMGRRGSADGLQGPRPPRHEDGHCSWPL
Protocol: FIGS. 4 and 5 show the modulation of ITK and its effects on immune response. […] However, when there is more ITK than SHP2, a stimulatory signal was generated. When there is the same amount of ITK and SHP2, the immune response was either inhibitory or activating. […] Thus, an activator of ITK would have the effect of enhancing an immune response and an inhibitor of ITK can suppress the immune response. […] PD-1 was immune-precipitated with beads 5 minutes after pre-activated primary mouse CD4 T cells were treated with PD-L1-IgG, PD-L2-IgG or anti-PD-1 mouse blocking antibody (clone RMP1-14).

In the case of “PD-L2-IgG: PD-L2 fused to IgG, used to treat T cells; sequence not stated at the place”, the “Tcm (CD45RO high/CD62L high/CD45RA low)” value [1] is reported as “significant increase”, the “Tte (exhausted or terminal effector T cells, CD45RO low/CD62L low/CD45RA high)” value [1] is reported as “significant decrease” and the “ITK/SHP2 ratio (PD-1 bound ITK and SHP2)” value [2] is reported as “increased”.
